Reference: patent US9057727B2, “Screening methods using G-protein coupled receptors and related compositions” (The General Hospital Corporation, priority 2007, dated 2015)
pEC50: −log10 of the molar value. Ends that are not written are not given here.

Key:
MC3T3-E1 cells [1] = experiment: cAMP in MC3T3-E1 cells, dose-response; assay type: cell-based; conditions: Table 3; read-out: dose-response cAMP in MC3T3-E1 (EC50)
Protocol: In the 1-30 scaffold, Gly, Ser, Leu, Asn, Gln, Trp, Glu, and Lys were substituted at position 29; Gly, Ser, Leu, Asn, Asp, Trp, and Lys were substituted at position 30; and Ser, Leu, Asn, Val, Trp, Glu, and Lys were substituted at position 31. […] These peptides were tested for cAMP activity in MC3T3-E1 cells.

MC3T3-E1 cells [2] = experiment: cAMP screen of EALK-PTHrP(1-31)/(1-34) variants (% parent); assay type: cell-based
Excerpt: FIGS. 32A and 32B are graphs showing the effects of amino acid substitutions in the 29-31 region of EALK-PTHrP(1-31) (SEQ ID NO:94) (FIG. 32A) and the 29-33 region of EALK-PTHrP(1-34) (SEQ ID NO:112) (FIG. 32B) on induction of cAMP activity in MC3T3-E1 cells. Substitutions at position 29 for EALK-PTHrP(1-31) were G^29 to S^29 (SEQ ID NO:95-96), L^29 (SEQ ID NO:176), and N^29 to K^29 (SEQ ID NO:97-101). Substitutions at position 30 for EALK-PTHrP(1-31) were G^30 to D^30 (SEQ ID NO:102-106), W^30 (SEQ ID NO:177), and K^30 (SEQ ID NO:107). […] Substitutions for EALK-PTHrP(1-34) A^30 to A^33 (SEQ ID NO:113-116) and EALK-PTHrP(1-28)/PTH(29-34) (SEQ ID NO:117).
To optimize the activity of the EALK-PTHrP peptides, we generated EALK-PTHrP([…]) and PTHrP(1-34) variants with substitutions in the 29-33 region. In the 1-30 scaffold, Gly, Ser, Leu, Asn, Gln, Trp, Glu, and Lys were substituted at position 29; Gly, Ser, Leu, Asn, Asp, Trp, and Lys were substituted at position 30; and Ser, Leu, Asn, Val, Trp, Glu, and Lys were substituted at position 31. […] A predicted advantage of these longer-length peptides, relative to the PTHrP(1-30) scaffold, is that they will have longer a longer half-life in circulation due to slower clearance. The C-terminal substitutions were thus designed to provide the added chain length, but to avoid increasing R^0 binding affinity, which occurs when the native PTHrP(29-34) region (SEQ ID NO:186) is installed. These peptides were tested for cAMP activity in MC3T3-E1 cells.

[3] = parent E18,A22,L25,K26-PTHrP(1-34)OH
[4] = parent E18,A22,L25,K26-PTHrP(1-31)OH

Row | Substance | pEC50 (MC3T3-E1 cells [1]) | screen cAMP (% parent) (MC3T3-E1 cells [2]; [3]) | screen cAMP (% parent) (MC3T3-E1 cells [2]; [4])
1 | AVSEHQLLHDKGKSIQDARRRAFLHKLIAE [A18, 22, K26-PTHrP(1-30)NH, A18,22,K26-PTHrP(1-30)] | 10.24 |  | 
2 | AVSEHQLLHDKGKSIQDARRRAFLHKLIAEI [A18, 22, K26-PTHrP(1-31)NH, A18,22,K26-PTHrP(1-31)] | 10.22 |  | 
3 | AVSEHQLLHDKGKSIQDARRRAFLLKLIAEI [A18, 22, L25, K26-PTHrP(1-31)NH, A18,22,L25,K26-PTHrP(1-31)] | 9.70 |  | 
4 | AVSEHQLLHDKGKSIQDERRRAFLHHKIAE [E18, A22, K27-PTHrP(1-30)NH, E18,A22,K27-PTHrP(1-30)] | 10.09 |  | 
5 | AVSEHQLLHDKGKSIQDERRRAFLLKLIAAIHTA [E18, A22, L25, K26, A30-PTHrP(1-34)OH, E18,A22,L25,K26,A30-PTHrP(1-34)] | 9.85 | 237 | 
6 | AVSEHQLLHDKGKSIQDERRRAFLLKLIADI [E18, A22, L25, K26, D30-PTHrP(1-31)OH, E18,A22,L25,K26,D30-PTHrP(1-31)] | 9.49 |  | 251
7 | AVSEHQLLHDKGKSIQDERRRAFLLKLIAEI [E18, A22, L25, K26-PTHrP(1-31)NH, E18,A22,L25,K26-PTHrP(1-31)] | 9.95 |  | 
8 | E18,A22,L25,K26,A32-PTHrP(1-34) (AVSEHQLLHDKGKSIQDERRRAFLLKLIAEIATA-OH) [E18, A22, L25, K26, A32-PTHrP(1-34)OH] |  | 197 | 
9 | E18,A22,L25,K26,A33-PTHrP(1-34) (AVSEHQLLHDKGKSIQDERRRAFLLKLIAEIHAA-OH) [E18, A22, L25, K26, A33-PTHrP(1-34)OH] |  | 196 | 
10 | E18,A22,L25,K26,E29-PTHrP(1-31) (AVSEHQLLHDKGKSIQDERRRAFLLKLIEEI-OH) [E18, A22, L25, K26, E29-PTHrP(1-31)OH] |  |  | 100
11 | E18,A22,L25,K26,G29-PTHrP(1-31) (AVSEHQLLHDKGKSIQDERRRAFLLKLIGEI-OH) [E18, A22, L25, K26, G29-PTHrP(1-31)OH] |  |  | 206
12 | E18,A22,L25,K26,G30-PTHrP(1-31) (AVSEHQLLHDKGKSIQDERRRAFLLKLIAGI-OH) [E18, A22, L25, K26, G30-PTHrP(1-31)OH] |  |  | 286
13 | E18,A22,L25,K26,K31-PTHrP(1-31) (AVSEHQLLHDKGKSIQDERRRAFLLKLIAEK-OH) [E18, A22, L25, K26, K31-PTHrP(1-31)OH] |  |  | 134
14 | E18,A22,L25,K26,L30-PTHrP(1-31) (AVSEHQLLHDKGKSIQDERRRAFLLKLIALI-OH) [E18, A22, L25, K26, L30-PTHrP(1-31)OH] |  |  | 185
15 | E18,A22,L25,K26,N29-PTHrP(1-31) (AVSEHQLLHDKGKSIQDERRRAFLLKLINEI-OH) [E18, A22, L25, K26, M29-PTHrP(1-31)OH] |  |  | 210
16 | E18,A22,L25,K26,N30-PTHrP(1-31) (AVSEHQLLHDKGKSIQDERRRAFLLKLIANI-OH) [E18, A22, L25, K26, N30-PTHrP(1-31)OH] |  |  | 189
17 | E18,A22,L25,K26,S31-PTHrP(1-31) (AVSEHQLLHDKGKSIQDERRRAFLLKLIAES-OH) [E18, A22, L25, K26, S31-PTHrP(1-31)OH] |  |  | 99
18 | E18,A22,L25,K26,V31-PTHrP(1-31) (AVSEHQLLHDKGKSIQDERRRAFLLKLIAEV-OH) [E18, A22, L25, K26, V31-PTHrP(1-31)OH] |  |  | 181
19 | E18,A22,L25,K26,W29-PTHrP(1-31) (AVSEHQLLHDKGKSIQDERRRAFLLKLIWEI-OH) [E18, A22, L25, K26, W29-PTHrP(1-31)OH] |  |  | 142
